Measured values reported in publication PMC2769999 (Biochemistry, 2009).

Target: T1, V331C LacY (lactose permease), MIANS- or DACM-labelled (Escherichia coli, UniProt P02920, E325Q/K319L/V331C)
T1 sequence (P02920 1-417 K319L/E325Q/V331C): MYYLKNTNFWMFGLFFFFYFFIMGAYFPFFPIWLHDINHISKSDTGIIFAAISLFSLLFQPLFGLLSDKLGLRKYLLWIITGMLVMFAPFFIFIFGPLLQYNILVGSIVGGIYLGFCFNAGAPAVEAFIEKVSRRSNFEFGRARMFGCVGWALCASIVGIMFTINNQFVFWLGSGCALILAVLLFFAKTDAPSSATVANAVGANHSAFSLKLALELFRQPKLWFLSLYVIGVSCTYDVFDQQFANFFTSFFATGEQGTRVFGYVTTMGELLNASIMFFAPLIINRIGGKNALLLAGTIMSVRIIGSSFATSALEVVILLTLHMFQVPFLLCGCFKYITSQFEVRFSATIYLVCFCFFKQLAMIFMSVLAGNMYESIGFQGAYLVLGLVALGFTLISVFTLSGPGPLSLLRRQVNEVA
Test: stopped-flow Trp to NPG FRET, kobs vs NPG
Format: binding

Work on `O=[N+]([O-])c1ccc(O[C@H]2O[C@H](CO)[C@H](O)[C@H](O)[C@H]2O)cc1` [NPG, 4-nitrophenyl α-D-galactopyranoside] yielded a Kd of 8.3 µM.
